Usually EC50 stands for the concentration giving half of the maximal effect.

The source made the active and inactive calls. How the calls were made is not given here. Some results are limits rather than exact numbers.

Sequence of Mu-type opioid receptor (Homo sapiens) (P35372 whole entry, looked up): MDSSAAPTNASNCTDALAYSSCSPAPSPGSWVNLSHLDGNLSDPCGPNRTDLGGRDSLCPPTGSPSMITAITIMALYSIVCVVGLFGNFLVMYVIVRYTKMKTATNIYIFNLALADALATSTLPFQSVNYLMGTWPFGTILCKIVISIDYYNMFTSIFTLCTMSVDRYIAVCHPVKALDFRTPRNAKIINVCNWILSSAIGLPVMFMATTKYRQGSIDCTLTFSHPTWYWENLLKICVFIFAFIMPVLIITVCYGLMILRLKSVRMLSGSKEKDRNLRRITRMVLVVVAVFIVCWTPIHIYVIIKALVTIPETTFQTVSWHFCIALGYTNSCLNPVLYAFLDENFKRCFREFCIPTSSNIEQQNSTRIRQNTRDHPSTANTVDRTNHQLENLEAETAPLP

The test concerns the target Mu-type opioid receptor (Homo sapiens) (UniProt P35372). As to the kind of experiment: mu opioid receptor activators – cell-based, luminescence, dose response, set 2, counter-screen for OPRM1-OPRD1 heterodimer activator project, late-stage follow-up (AID 651769). Conditions: OPRM1 cell-based luminescence activation counterscreen. In general terms: The purpose of a counterscreen is to sort out artefacts and off-target activity.
`C=Cc1ccc(C(=O)N2CCC(CCc3ccccc3)(C(=O)OCC)CC2)cc1`: the EC50 is > 50 µM (inactive).

Consider `CCOC(=O)C1(Cc2ccc(OC)cc2)CCN(C(=O)c2ccc(N(C)C)cc2)CC1`, for which the EC50 was > 50 µM (inactive).

Take `CCOC(=O)C1(CCOC)CCN(Cc2ccc(N(C)c3ccccc3)cc2)CC1`: the EC50 was > 50 µM (inactive).

As for `CC(=O)Nc1ccc(CN2CCCC(CO)(CCc3ccccc3)C2)cc1` (stereo not drawn), the EC50 is > 50 µM (inactive).

As for `CCOC(=O)C1(CCc2ccccc2)CCN(Cc2ccncc2)CC1`, the EC50 was > 50 µM (inactive).

For `CCOC(=O)C1(Cc2ccccc2Cl)CCN(Cc2ccc(NC(C)=O)cc2)CC1`, the EC50 was > 50 µM (inactive).

Consider `CCOC(=O)C1(Cc2ccccc2)CCCN(Cc2ccc(NC(C)=O)cc2)C1` (stereo not drawn), for which the EC50 was > 50 µM (inactive).

For the compound `CCOC(=O)C1(CC2CC2)CCN(Cc2ccc(NC(C)=O)cc2)CC1`, the EC50 is > 50 µM (inactive).

Consider `CCOC(=O)C1(CCc2ccccc2)CCN(Cc2ccc(O)cc2)CC1`, for which the EC50 is > 50 µM (inactive).

Consider `CCOC(=O)C1CCN(C(=O)c2ccc(N(C)C)cc2)CC1`, for which the EC50 is > 50 µM (inactive).

For the compound `CCOC(=O)C1(CCOC)CCCN(Cc2ccc(NC(C)=O)cc2)C1` (stereo not drawn), the EC50 is > 50 µM (inactive).

Consider `CCOC(=O)C1CCCCN1Cc1ccc(NC(C)=O)cc1` (stereo not drawn), for which the EC50 is > 50 µM (inactive).

Consider `CCOC(=O)C1CCN(Cc2ccc(NC(C)=O)cc2)CC1`, for which the EC50 was > 50 µM (inactive).

As for `CCOC(=O)C1(CCc2ccccc2)CCN(Cc2ccc(C#CC(C)(C)O)cc2)CC1`, the EC50 was > 50 µM (inactive).

On to `CCOC(=O)C1(CCOC)CCN(Cc2ccc(NC(C)=O)cc2)CC1`, for which the EC50 was > 50 µM (inactive).

On to `CCOC(=O)C1(Cc2ccccc2C)CCCN(Cc2ccc(NC(C)=O)cc2)C1` (stereo not drawn), for which the EC50 was > 50 µM (inactive).

Take `CCOC(=O)C1(CCOc2ccccc2)CCCN(Cc2ccc(NC(C)=O)cc2)C1` (stereo not drawn): the EC50 was > 50 µM (inactive).

On to `CCOC(=O)C1(CCc2ccccc2)CCN(C(=O)Nc2ccc(C)cc2C)CC1`, for which the EC50 is > 50 µM (inactive).

Regarding `CCOC(=O)C1(CCc2ccccc2)CCN(Cc2c(O)cccc2OC)CC1`, the EC50 was 3.44 µM.

Regarding `CCOC(=O)C1CCN(CCC(=O)Nc2ccc(C)cc2)CC1`, the EC50 was > 50 µM (inactive).

Regarding `CCOC(=O)C1CCN(Cc2ccc(N(C)C)cc2)CC1`, the EC50 is > 50 µM (inactive).

In the case of `C=Cc1ccc(C(=O)N2CCC(CCCc3ccccc3)(C(=O)OCC)CC2)cc1`, the EC50 is > 50 µM (inactive).

For the compound `CCOC(=O)C1(CCc2ccccc2)CCN(Cc2ccc(C(=O)OC)cc2)CC1`, the EC50 was > 50 µM (inactive).

With `CCOC(=O)C1(Cc2cccc(OC)c2)CCCN(Cc2ccc(NC(C)=O)cc2)C1` (stereo not drawn), the EC50 was > 50 µM (inactive).

`CCOC(=O)C1(CC2CC2)CCN(C(=O)c2ccc(N3CCCCC3)cc2)CC1`: the EC50 is > 50 µM (inactive).

`O=C(O)C1CCCCC1C(=O)Nc1ccc(CN2CCCCC2)cc1` (stereo not drawn): the EC50 was > 50 µM (inactive).

For `CCOC(=O)C1(CCc2ccccc2)CCCN(Cc2ccc(N3CCNC3=O)cc2)C1` (stereo not drawn), the EC50 is > 50 µM (inactive).

Regarding `CCOC(=O)C1(CCc2ccccc2)CCN(Cc2ccc(OC)cc2)CC1`, the EC50 is 1.92 µM.

These data come from PubChem BioAssay AID651769 (The Scripps Research Institute Molecular Screening Center, 2012).
